Data: patent US12247045B2, “MAP4K4 inhibitors” (Imperial College Innovations Limited, priority 2018, dated 2025)

These compounds were tested against T1, human MAP4K4 kinase domain (Homo sapiens, UniProt O95819) (assay: MAP4K4 kinase activity, CisBio HTRF Transcreener ADP assay). Conditions: IC50 category; ATP at Km (10 μM), 0.5 nM kinase domain, 2 h; read-out: MAP4K4.
T1 construct: 0.5 nM human MAP4K4 kinase domain (Invitrogen); purchased Invitrogen
Assay type: biochemical
Source text: Compounds of the present invention were screened for their inhibitory activity against MAP4K4, versus selected off-target hits found with early members of this chemical series. MAP4K4 kinase activity was monitored using the CisBio HTRF Transcreener ADP assay, a competitive immunoassay with a reproducible Z′>0.6. In the detection step, endogenous ADP and d2-labeled ADP compete for binding an anti-ADP monoclonal antibody labelled with Eu^3+ cryptate. A ratiometric fluorescent read-out is used at 665 and 620 nm. Reactions were performed in the presence of 1% DMSO with ATP added at Km (10 μM), 0.5 nM human MAP4K4 kinase domain (Invitrogen), 1 μM biotin-myelin basic protein as substrate (Invitrogen), and extension of reaction time to 2 h. Assays were run in Greiner low volume plates with a final reaction volume of 10 μl. The MAP4K4 inhibition data are provided in Table 41 below for selected compounds of the present invention. The data has been categorised based on the IC50 value of the compound as “A”, “B” or “C”. IC50: A≤100 nM; 100 nM<B≤1 μM; 1 μM<C; nd=not determined.

T1 sequence (O95819 25-289 limits assumed): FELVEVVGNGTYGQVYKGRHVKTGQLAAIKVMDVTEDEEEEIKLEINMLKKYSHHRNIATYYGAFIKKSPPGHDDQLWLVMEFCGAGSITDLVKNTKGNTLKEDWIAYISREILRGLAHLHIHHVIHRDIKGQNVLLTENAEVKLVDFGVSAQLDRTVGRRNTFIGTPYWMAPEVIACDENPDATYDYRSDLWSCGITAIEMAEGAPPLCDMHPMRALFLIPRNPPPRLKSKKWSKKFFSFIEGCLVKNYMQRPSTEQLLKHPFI

| SMILES | IC50 |
| --- | --- |
| Cc1cc(-c2cn(-c3ccccc3)c3c(=O)[nH]cnc23)ccn1 [Ex-130] | 0.1 to 1 µM |
| O=c1[nH]cnc2c1c(-c1ccc(OCC3(CO)COC3)cc1)cn2-c1ccncc1 [Ex-76] | ≤ 0.1 µM |
| Nc1ccc(-c2cn(-c3ccccc3)c3nc[nH]c(=O)c23)cn1 [Ex-9] | ≤ 0.1 µM |
| O=c1[nH]cnc2c1c(-c1cnn(Cc3ccccc3)c1)cn2-c1ccccc1 [Ex-23] | ≤ 0.1 µM |
| N#Cc1cc(-c2cn(-c3ccccc3)c3nc[nH]c(=O)c23)cnc1N1CC[C@@H](O)C1 [Ex-40] | ≤ 0.1 µM |
| COCCNc1ncc(-c2cn(-c3ccncc3)c3nc[nH]c(=O)c23)cn1 [Ex-32] | 0.1 to 1 µM |
| O=c1[nH]cnc2c(-c3ccccc3)cn(-c3cncc(F)c3)c12 [Ex-44] | ≤ 0.1 µM |
| O=c1[nH]cnc2c1c(-c1cn[nH]c1)cn2-c1ccccc1 [Ex-112, 7-Phenyl-5-(1H-pyrazol-4-yl)-3,7-dihydro-pyrrolo[2,3-d]pyrimidin-4-one] | ≤ 0.1 µM |
| CC(C)(O)CCOc1ccc(-c2cn(-c3cncc(F)c3)c3nc[nH]c(=O)c23)cc1 [Ex-84] | 0.1 to 1 µM |
| O=c1[nH]cnc2c1c(-c1ccc[nH]1)cn2-c1ccccc1 [Ex-56, 7-Phenyl-5-(1H-pyrrol-2-yl)-3,7-dihydro-pyrrolo[2,3-d]pyrimidin-4-one] | ≤ 0.1 µM |
| O=c1cc(-c2cn(-c3ccccc3)c3c(=O)[nH]cnc23)cc[nH]1 [Ex-128] | 0.1 to 1 µM |
| O=c1[nH]cnc2c1c(-c1cnc(N3CC(O)C3)nc1)cn2-c1cccnc1 [Ex-37] | > 1 µM |
| CC(C)(O)COc1ccc(-c2cn(-c3cccnc3)c3nc[nH]c(=O)c23)cc1 [Ex-66, 5-(4-(2-hydroxy-2-methylpropoxy)phenyl)-7-(pyridin-3-yl)-3,7-dihydro-4H-pyrrolo[2,3-d]pyrimidin-4-one] | ≤ 0.1 µM |
| O=c1[nH]cnc2c1c(-c1ccc(OCC3(CO)COC3)cc1)cn2-c1cccnc1 [Ex-79] | ≤ 0.1 µM |
| CC(=O)NC1CC(n2cc(-c3cn(-c4ccccc4)c4nc[nH]c(=O)c34)cn2)C1 (stereo not shown) [Ex-16] | ≤ 0.1 µM |
| O=c1[nH]cnc2c1c(-c1ccc(OCCC3(O)COC3)cc1)cn2-c1cccnc1 [Ex-91] | ≤ 0.1 µM |
| O=c1[nH]cnc2c(-c3cccc4cn[nH]c34)cn(-c3ccccc3)c12 [Ex-117] | 0.1 to 1 µM |
| CC(C)(O)CCOc1ccc(-c2cn(-c3cccnc3)c3nc[nH]c(=O)c23)c(F)c1 [Ex-72] | ≤ 0.1 µM |
| Cn1cc(-c2cn(-c3ccccc3)c3nc[nH]c(=O)c23)cn1 [Ex-24] | ≤ 0.1 µM |
| CC(C)(N)COc1ccc(-c2cn(-c3cccnc3)c3nc[nH]c(=O)c23)cc1 [Ex-110] | 0.1 to 1 µM |
| COCCn1cc(-c2cn(-c3cccc(F)c3)c3nc[nH]c(=O)c23)cn1 [Ex-20] | ≤ 0.1 µM |
| N#Cc1cc(-c2cn(-c3ccccc3)c3nc[nH]c(=O)c23)cnc1N1CC[C@H](O)C1 [Ex-41] | ≤ 0.1 µM |
| O=c1[nH]cnc2c(-c3ccc4cn[nH]c4c3)cn(-c3ccccc3)c12 [Ex-139, 7-(1H-Indazol-6-yl)-5-phenyl-3,5-dihydro-pyrrolo[3,2-d]pyrimidin-4-one] | 0.1 to 1 µM |
| O=c1[nH]cnc2c1c(-c1ccccc1)cn2-c1cccnc1 [Ex-1, 5-Phenyl-7-pyridin-3-yl-3,7-dihydro-pyrrolo[2,3-d]pyrimidin-4-one] | 0.1 to 1 µM |
| CNCCn1cc(-c2cn(-c3ccccc3)c3nc[nH]c(=O)c23)cn1 [Ex-109] | 0.1 to 1 µM |

| SMILES | IC50 |
| --- | --- |
| COCCOc1ccc(-c2cn(-c3cncc(F)c3)c3nc[nH]c(=O)c23)cc1 [Ex-85] | ≤ 0.1 µM |
| O=c1[nH]cnc2c(-c3ccc(OC4CC4)nc3)cn(-c3ccccc3)c12 [Ex-137, 7-(6-cyclopropoxypyridin-3-yl)-5-phenyl-3,5-dihydro-4H-pyrrolo[3,2-d]pyrimidin-4-one] | 0.1 to 1 µM |
| O=c1[nH]cnc2c1c(-c1ccn[nH]1)cn2-c1ccccc1 [Ex-57] | 0.1 to 1 µM |
| O=c1[nH]cnc2c(-c3cccnc3)cn(-c3ccccc3)c12 [Ex-124] | 0.1 to 1 µM |
| CN(C)CCCOc1ccc(-c2cn(-c3cccnc3)c3nc[nH]c(=O)c23)cc1 [Ex-33] | ≤ 0.1 µM |
| O=c1[nH]cnc2c1c(-c1cnc(N3CC(CO)C3)nc1)cn2-c1ccccc1 [Ex-51] | 0.1 to 1 µM |
| COc1ccc(-c2cn(-c3ccccc3)c3nc[nH]c(=O)c23)nn1 [Ex-104, 5-(6-Methoxy-pyridazin-3-yl)-7-phenyl-3,7-dihydro-pyrrolo[2,3-d]pyrimidin-4-one] | > 1 µM |
| CN(C)CCCOc1ccc(-c2cn(-c3ccccc3)c3c(=O)[nH]cnc23)cn1 [Ex-114, 7-[6-(3-Dimethylamino-propoxy)-pyridin-3-yl]-5-phenyl-3,5-dihydro-pyrrolo[3,2-d]pyrimidin-4-one] | 0.1 to 1 µM |
| CC(C)(O)CCOc1ccc(-c2cn(-c3cccnc3)c3ncn(COP(=O)(O)O)c(=O)c23)cc1 [Ex-102, (5-(4-(3-hydroxy-3-methylbutoxy)phenyl)-4-oxo-7-(pyridin-3-yl)-4,7-dihydro-3H-pyrrolo[2,3-d]pyrimidin-3-yl)methyl dihydrogen phosphate] | > 1 µM |
| CN1CCN(CCCOc2ccc(-c3cn(-c4cccnc4)c4nc[nH]c(=O)c34)cc2)CC1 [Ex-43] | ≤ 0.1 µM |
| CC(C)(N)CCOc1ccc(-c2cn(-c3cccnc3)c3nc[nH]c(=O)c23)cc1 [Ex-111] | 0.1 to 1 µM |
| O=c1[nH]cnc2c(-c3cncnc3)cn(-c3ccccc3)c12 [Ex-115] | > 1 µM |
| CC(C)(O)CCOc1ccc(-n2cc(-c3cccnc3)c3nc[nH]c(=O)c32)cc1 [Ex-125, 5-(4-(3-hydroxy-3-methylbutoxy)phenyl)-7-(pyridin-3-yl)-3,5-dihydro-4H-pyrrolo[3,2-d]pyrimidin-4-one] | ≤ 0.1 µM |
| CC(C)(O)COc1ccc(-c2cn(-c3ccncc3)c3nc[nH]c(=O)c23)cc1 [Ex-68, 5-(4-(2-hydroxy-2methylpropoxy)phenyl)-7-(pyridine-4-yl)-3,7-dihydro-4H-pyrrolo[2,3-d]pyrimidin-4-one] | ≤ 0.1 µM |
| O=C(C1CC1)N1CC(n2cc(-c3cn(-c4cccc(F)c4)c4nc[nH]c(=O)c34)cn2)C1 [Ex-15] | ≤ 0.1 µM |
| COc1cc(-n2cc(-c3ccc(OCCC(C)(C)O)cc3)c3c(=O)[nH]cnc32)ccn1 [Ex-83] | 0.1 to 1 µM |
| O=c1[nH]cnc2c1c(-c1ccc(NCCO)nc1)cn2-c1ccccc1 [Ex-48, 5-[6-(2-Hydroxy-ethylamino)-pyridin-3-yl]-7-phenyl-3,7-dihydro-pyrrolo[2,3-d]pyrimidin-4-one] | ≤ 0.1 µM |
| CC(C)(O)CCOc1ccc(-c2cn(-c3ccc(N)nc3)c3nc[nH]c(=O)c23)cc1 [Ex-96, 7-(6-aminopyridin-3-yl)-5-(4-(3-hydroxy-3-methylbutoxy)phenyl)-3,7-dihydro-4H-pyrrolo[2,3-d]pyrimidin-4-one] | ≤ 0.1 µM |
| Cc1ccc(-c2cn(-c3ccccc3)c3c(=O)[nH]cnc23)cn1 [Ex-131] | > 1 µM |
| O=c1[nH]cnc2c1c(-c1cnc(NCCO)nc1)cn2-c1cccnc1 [Ex-45] | 0.1 to 1 µM |
| CC(=O)N1CC(n2cc(-c3cn(-c4ccc(F)cc4)c4nc[nH]c(=O)c34)cn2)C1 [Ex-3, 5-[1-(1-Acetyl-azetidin-3-yl)-1H-pyrazol-4-yl]-7-(4-fluoro-phenyl)-3,7-dihydro-pyrrolo[2,3-d]pyrimidin-4-one] | 0.1 to 1 µM |
| COCCNc1ccc(-c2cn(-c3ccncc3)c3nc[nH]c(=O)c23)cn1 [Ex-14] | ≤ 0.1 µM |
| CC(=O)N1CC(n2cc(-c3cn(-c4ccccc4)c4nc[nH]c(=O)c34)cn2)C1 [Ex-60] | ≤ 0.1 µM |
| O=c1[nH]cnc2c(-c3ccc(NC4CC4)nc3)cn(-c3ccccc3)c12 [Ex-135] | > 1 µM |
